# System: up-regulation of ICAM-1 (CD54) by IFNγ in U937 human monocytic cells
# Experiment: U937 IFNγ ICAM1 FACS Assay
# Format: cell-based
# Details: Homo sapiens, U-937, U937 cells stimulated with IFNγ, ICAM-1 expression by FACS; read-out: IC50, Example 44
# From the text: The activity of the compounds of the invention may additionally be characterized by assaying the effect of the 2,4-substituted pyrimidinediamine compounds described herein on A549 lung epithelial cells and U937 cells. A549 lung epithelial cells and U937 cells up-regulate ICAM-1 (CD54) surface expression in response to a variety of different stimuli. Therefore, using ICAM-1 expression as readout, test compound effects on different signaling pathways can be assessed in the same cell type. Stimulation with IL-1β through the IL-1β receptor activates the TRAF6/NFκB pathway resulting in up-regulation of ICAM-1. IFNγ induces ICAM-1 up-regulation through activation of the JAK1/JAK2 pathway. The up-regulation of ICAM-1 can be quantified by flow cytometry across a compound dose curve and EC50, values are calculated.
# U937 human monocytic cells up-regulate ICAM-1 (CD54) surface expression in response to a variety of different stimuli. Therefore, using ICAM-1 expression as readout, compound effects on different signaling pathways can be assessed in the same cell type. IFNγ up-regulates ICAM-1 through activation of the JAK/Stat pathway. In this example, the up-regulation of ICAM-1 by IFNγ was assessed.
# The U937 human monocytic cell line was obtained from ATCC of Rockville Maryland, catalog number CRL-1593.2, and cultured in RPM1-1640 medium containing 10% (v/v) FCS. U937 cells were grown in 10% RPMI. The cells were then plated at a concentration of 100,000 cells per 160 μL in 96 well flat bottom plates. […] Then 4 μL of test compound was transferred to 76 μL of 10% RPMI resulting in a 10× solution (100 μM test compound, 5% DMSO). For control wells, 4 μL of DMSO was diluted into 76 μL 10% RPMI.
# The assay was performed in duplicate with 8 points (8 3-fold dilution concentrations from […]) and with 4 wells of DMSO only (control wells) under stimulated conditions and 4 wells of DMSO only under unstimulated conditions.
# The diluted compound plate was mixed 2× using a multimek (Beckman Coulter of Brea, California) and then 20 μL of the diluted compounds was transferred to the 96 well plate containing 160 μL of cells, which were then mixed again twice at low speeds. The cells and compounds were then pre-incubated for 30 minutes at 37° C. with 5% CO2.
# The 10× stimulation mix was made by preparing a 100 ng/mL solution of human IFNγ in 10% RPMI. […] The cells were kept under conditions for stimulation for 18-24 hours at 37° C. with 5% CO2.
# The cells were transferred to a 96 well round bottom plate for staining and then kept on ice for the duration of the staining procedure. Cells were spun down at 1000 rpm for 5 minutes at 4° C., following which the supernatant was removed. Following removal of the supernatant, 1 μL APC conjugated mouse anti-human ICAM-1 antibody was added per 100 μL FACS buffer. The cells were then incubated on ice in the dark for 30 minutes. Following incubation, […] of FACS buffer was added and the cells were centrifuged at 1000 rpm for 5 minutes at 4° C., following which the supernatant was removed. After removal of the supernatant, 200 μL of FACS buffer was added and the cells were resuspended. After suspension, the cells were centrifuged at 1000 rpm for 5 min at 4° C. Supernatant was then removed prior to resuspension of the cells in 150 μL FACS buffer.
# Detection was performed using a BD LSR I System Flow Cytometer, purchased from BD Biosciences of San Jose, California The live cells were gated for live scatter and the geometric mean of ICAM-APC was measured (Becton-Dickinson CellQuest software version 3.3, Franklin Lakes, NJ). Both % live cells and ICAM-1 expression was analyzed. The assays for the test compounds were carried out in parallel with a control compound of known activity.
row,Structure (SMILES),IC50 [nM]
1,"Cc1ccc(Nc2ncc(F)c(Nc3ccc4c(CC#N)c[nH]c4c3)n2)cc1S(N)(=O)=O [IX-11, N2-(3-Aminosulfonyl-4-methylphenyl)-N4-(3-cyanomethyl-1H-indol-6-yl)-5-fluoro-2,4-pyrimidinediamine]",2240
2,"COc1ccc(CN2C(=O)C(C)Sc3ccc(Nc4nc(Nc5ccc(S(N)(=O)=O)cc5)ncc4F)cc32)cc1 (racemic) [Compound V-10, (R/S)-N2-(4-Aminosulphonylphenyl)-5-fluoro-N4-[2-methyl-3-oxo-4-(4-methoxybenzyl)-benzo[1,4]thiazin-6-yl]-2,4-pyrimidinediamine]",2700
3,"N#CCN1C(=O)CSc2ccc(Nc3nc(Nc4ccc(S(N)(=O)=O)cc4)ncc3F)cc21 [Compound V-11, N2-(4-Aminosulphonylphenyl)-5-fluoro-N4-(3-oxo-4-cyanomethyl-benzo[1,4]thiazin-6-yl)-2,4-pyrimidinediamine]",1420
4,"Cc1ccc(Nc2ncc(F)c(Nc3ccc(-c4cnco4)cc3)n2)cc1S(N)(=O)=O [IV-6, N2-(3-Aminosulfonyl-4-methylphenyl)-5-fluoro-N4-[4-(1,3-oxazol-5-yl)phenyl]-2,4-pyrimidinediamine]",880
5,"N#CCN1C(=O)CSc2ccc(Nc3nc(Nc4cccc(S(N)(=O)=O)c4)ncc3F)cc21 [Compound V-12, N2-(3-Aminosulphonylphenyl)-5-fluoro-N4-(3-oxo-4-cyanomethyl-benzo[1,4]thiazin-6-yl)-2,4-pyrimidinediamine]",3040
6,"NS(=O)(=O)c1cccc(Nc2ncc(F)c(Nc3cccc(-c4cnco4)c3)n2)c1 [IV-1, N2-(3-Aminosulfonylphenyl)-5-fluoro-N4-[3-(1,3-oxazol-5-yl)phenyl]-2,4-pyrimidinediamine]",272
7,"Cc1ccc(Nc2ncc(F)c(Nc3ccc4c(c3)N(CC#N)C(=O)CO4)n2)cc1S(N)(=O)=O [Compound V-8, N2-(3-Aminosulphonyl-4-methylphenyl)-5-fluoro-N4-[3-oxo-4-cyanomethyl-benz[1,4]oxazin-6-yl]-2,4-pyrimidinediamine]",620
8,"Cc1ccc(Nc2ncc(F)c(Nc3ccc4c(c3)N(CC#N)C(=O)CS4)n2)cc1S(N)(=O)=O [Compound V-13, N2-(3-Aminosulphonyl4-methylphenyl)-5-fluoro-N4-(3-oxo-4-cyanomethyl-benzo[1,4]thiazin-6-yl)-2,4-pyrimidinediamine]",1200
9,"Cc1ccc(Nc2ncc(F)c(Nc3cccc4c(CC#N)c[nH]c34)n2)cc1S(N)(=O)=O [IX-16, N2-(3-Aminosulfonyl-4-methylphenyl)-N4-(3-cyanomethyl-1H-indol-7-yl)-5-fluoro-2,4-pyrimidinediamine]",2510

# Next, values leading:
row,IC50 [nM],Structure (SMILES)
1,1810,"C#CCOc1ccc(Nc2nc(Nc3ccc(C)c(S(=O)(=O)NC)c3)ncc2F)cc1 [VI-68, 5-Fluoro-N2-(4-methyl-3-methylaminosulfonylphenyl)-N4-[4-(prop-2-ynyloxy)phenyl]-2,4-pyrimidinediamine]"
2,7700,"Cc1ccc(Nc2ncc(F)c(Nc3ccc(Cl)c(Cl)c3)n2)cc1S(N)(=O)=O [VI-6, N2-(3-Aminosulfonyl-4-methylphenyl)-N4-(3,4-dichlorophenyl)-5-fluoro-2,4-pyrimidinediamine]"
3,5350,"COc1ccc(Nc2nc(Nc3ccc(C)c(S(N)(=O)=O)c3)ncc2F)nc1N [VII-9, N2-(3-Aminosulfonyl-4-methylphenyl)-N4-[2-amino-3-methoxypyrid-6-yl]-5-fluoro-2,4-pyrimidinediamine]"
4,2630,"NS(=O)(=O)c1ccc(Nc2ncc(F)c(NCCc3ccc(-n4ccnc4)cc3)n2)cc1 [III-90, N2-(4-Aminosulfonylphenyl)-5-fluoro-N4-[4-(1-imidazolyl)phenethyl]-2,4-pyrimidinediamine]"
5,856,"COc1ccc(Nc2nc(Nc3cccc(S(N)(=O)=O)c3)ncc2F)cc1Cl [VI-107, N2-(3-Aminosulfonylphenyl)-5-fluoro-N4-(4-methoxy-3-chlorophenyl]-2,4-pyrimidinediamine]"
6,565,"C#CCOc1ccc(Nc2nc(Nc3ccc(C)c(S(N)(=O)=O)c3)ncc2F)cc1 [VI-53, N2-(3-Aminosulfonyl-4-methylphenyl)-5-fluoro-N4-[4-(prop-2-ynyloxy)phenyl]-2,4-pyrimidinediamine]"
7,2800,"Cc1ccc(Nc2ncc(F)c(Nc3ccc(O)cc3)n2)cc1S(N)(=O)=O [VI-102, N2-(3-Aminosulfonyl-4-methylphenyl)-5-fluoro-N4-[4-hydroxyphenyl]-2,4-pyrimidinediamine]"
8,767,"COc1ccc(Nc2nc(Nc3cc(C)c(F)c(S(N)(=O)=O)c3)ncc2F)cc1Cl [VI-15, N2-(3-Aminosulfonyl-4-fluoro-5-methylphenyl)-N4-(3-chloro-4-methoxyphenyl)-5-fluoro-2,4-pyrimidinediamine]"
9,964,"C#CCNc1ccc(Nc2nc(Nc3ccc(C)c(S(N)(=O)=O)c3)ncc2F)cc1 [VI-65, N2-(3-Aminosulfonyl-4-methylphenyl)-5-fluoro-N4-[4-(prop-2-ynylamino)phenyl]-2,4-pyrimidinediamine]"
10,3850,"C#CCOC(=O)NCc1ccc(Nc2nc(Nc3cccc(S(N)(=O)=O)c3)ncc2F)cc1 [VI-74, N2-(3-Aminosulfonylphenyl)-5-fluoro-N4-{4-[(prop-2-ynyloxy)carbonylaminomethyl]phenyl}-2,4-pyrimidinediamine]"
11,2130,"NS(=O)(=O)c1cccc(Nc2ncc(F)c(Nc3ccc(C(F)(F)F)cc3)n2)c1 [VI-51, N2-(3-Aminosulfonylphenyl)-5-fluoro-N4-(4-trifluoromethylphenyl)-2,4-pyrimidinediamine]"
12,1620,"C=Cc1ccc(Nc2nc(Nc3ccc(C)c(S(N)(=O)=O)c3)ncc2F)cc1 [VI-54, N2-(3-Aminosulfonyl-4-methylphenyl)-5-fluoro-N4-(4-vinylphenyl)-2,4-pyrimidinediamine]"
13,1180,"Cc1ccc2cc(Nc3nc(Nc4cccc(S(N)(=O)=O)c4)ncc3F)ccc2n1 [VII-72, N2-(3-Aminosulfonylphenyl)-5-fluoro-N4-(2-methylquinolin-6-yl)-2,4-pyrimidinediamine]"
14,1100,"NS(=O)(=O)c1cccc(Nc2ncc(F)c(Nc3ccc4sccc4c3)n2)c1 [VII-58, N2-(3-Aminosulfonylphenyl)-N4-(benzothiophen-5-yl)-5-fluoro-2,4-pyrimidinediamine]"
15,367,"CC#CCOc1ccc(Nc2nc(Nc3ccc(C)c(S(N)(=O)=O)c3)ncc2F)cc1 [VI-61, N2-(3-Aminosulfonyl-4-methylphenyl)-N4-[4-(but-2-ynyloxy)phenyl]-5-fluoro-2,4-pyrimidinediamine]"
16,5460,"NS(=O)(=O)c1cccc(Nc2ncc(F)c(Nc3ccc(Cl)c(Cl)c3)n2)c1 [VI-110, N2-(3-Aminosulfonylphenyl)-N4-(3,4-dichlorophenyl)-5-fluoro-2,4-pyrimidinediamine]"
17,701,"Cc1ccc(Nc2ncc(C)c(Nc3ccc4c(c3)NC(=O)CO4)n2)cc1S(N)(=O)=O [VII-30, N2-(3-Aminosulphonyl-4-methylphenyl)-5-methyl-N4-(3-oxo-benz[1,4]oxazin-6-yl)-2,4-pyrimidinediamine]"
18,1230,"Cc1ccc(Nc2ncc(F)c(Nc3ccc4c(c3)NC(=O)CS4)n2)cc1S(N)(=O)=O [VII-44, N2-(3-Aminosulphonyl-4-methyl-phenyl)-5-fluoro-N4-(3-oxo-4H-benzo[1,4]thiazin-6-yl)-2,4-pyrimidinediamine]"
